Source: article PMC3954793, “SHP-2 Binds to Caveolin-1 and Regulates Src Activity via Competitive Inhibition of CSK in Response to H2O2 in Astrocytes” (PLoS ONE, 2014)
Entries after “also recorded” stand apart in the source; their conditions may differ. Ends that are not written are not given here.

Assays:
recombinant GST-CSK = assay: Surface plasmon resonance, rGST-CSK; format: binding; details: rGST-CSK immobilized on G1 chip; peptide 10 to 1,000 µg/mL injected, 20 µL/min, 1×TBS; repeated twice
Method: (§1) SPR was performed on a SPRmicro system (K-MAC, Daejeon, Korea). A G1 chip (bare surface gold chip) was dipped into a 3 mM N-hydroxylsuccinimide self-assembled monolayer to form covalent bonds among protein amine groups. After washing with ethanol, the chip was purged with N2 gas. Recombinant GST-SHP-2 or GST-CSK was mixed with 20% ethylene glycol and then spotted onto the chip. Ligands were reacted on room temperature for 12 h to allow the ligands to become fixed onto the chip. After the reaction, the […] by washing with 1×Tris-buffered saline (TBS), and purged with N2 gas. SPR signal baselines were stabilized using 1×TBS running buffer, and different dilutions of caveolin-1 phosphopeptides (Cav-1 pY 14, GHL-pY-TVPIREQGN) in buffer were injected at a flow rate of 20 µL/min. Response unit (RU) alterations following sample reactions were analyzed by comparing affinities to the chip surface. Experiments were conducted by switching from samples immobilized on the chip (Cav-1 pY 14) to injected samples (rGST-CSK or rGST-SHP-2). […] Equilibrium binding curves and RU values are shown.
(§2) Figure 5 SPR and flow cytometric analyses of SHP-2 and CSK binding to phosphorylated-Tyr peptides of caveolin-1. […] After stringent wash, bound SHP-2 or CSK to caveolin-1 peptide conjugated beads were measured by Accuri C6 flow cytometer.

recombinant GST-SHP-2 = biological target: T1, recombinant GST-SHP-2 (Homo sapiens, UniProt Q06124); assay: Surface plasmon resonance, rGST-SHP-2; format: binding
T1 construct: purchased Abnova (Taipei, Taiwan)
T1 sequence (Q06124 1-593): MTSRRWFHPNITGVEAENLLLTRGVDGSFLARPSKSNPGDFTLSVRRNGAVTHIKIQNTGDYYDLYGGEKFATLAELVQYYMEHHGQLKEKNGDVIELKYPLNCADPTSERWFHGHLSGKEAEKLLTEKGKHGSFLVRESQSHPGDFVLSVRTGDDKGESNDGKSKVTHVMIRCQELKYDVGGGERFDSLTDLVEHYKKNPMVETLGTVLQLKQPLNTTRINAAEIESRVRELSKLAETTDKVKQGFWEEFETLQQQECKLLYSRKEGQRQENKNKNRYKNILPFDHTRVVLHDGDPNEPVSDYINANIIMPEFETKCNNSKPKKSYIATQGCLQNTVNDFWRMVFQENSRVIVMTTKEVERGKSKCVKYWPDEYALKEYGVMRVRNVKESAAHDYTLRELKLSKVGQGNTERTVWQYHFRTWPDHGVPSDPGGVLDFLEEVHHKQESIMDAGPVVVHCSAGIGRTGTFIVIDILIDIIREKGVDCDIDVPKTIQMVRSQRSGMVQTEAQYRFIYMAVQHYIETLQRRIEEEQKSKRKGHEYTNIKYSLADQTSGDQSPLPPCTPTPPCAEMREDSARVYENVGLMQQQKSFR
Method: as §1, §2

FAK phosphorylation = assay: Immunoblot of p-FAK; format: cell-based, human; details: CRT-MG cells; PTPi IV 5 or 10 µM, 30 min; 5 mM H2O2, 10 min
Method: (§3) Figure 7 SHP-2 and CSK reciprocally regulate H2O2-induced Src activation. […] Tubulin was evaluated as a loading control. Bottom panel, Densitometric quantification of p-Src Y419 levels (empty bars) and p-Src Y530 levels (filled bars), normalized to the level of total Src. Results are expressed as percentage of H2O2-treated values in control siRNA presented as mean ± SD. (*p<0.05 vs. H2O2-treated cells transfected with control siRNA; #p<0.05 between SHP-2 siRNA-transfected cells and CSK siRNA-transfected cells; n = 3). (B) Inhibition of SHP-2 by PTPi IV attenuated the H2O2-induced activation of the Src signaling pathway. CRT-MG cells were treated with 5 mM H2O2 or not for 10 min in the presence of 5 or 10 µM PTPi IV for 30 min, and lysed in cold-RIPA buffer. Antibodies against p-SHP-2, SHP-2, p-Src, Src, p-FAK, FAK, p-ERK, ERK, and tubulin were used for immunoblotting. Bottom panel, Densitometric quantification of p-Src Y419 levels (empty bars) and p-Src Y530 levels (filled bars), normalized to the level of total Src. […] (p, phospho).

[1] = tested on: Src (Tyr 530 phosphorylation); assay: Immunoblot of p-Src Y530; format: cell-based, human; details: CRT-MG cells; PTPi IV 0–10 µM, 30 min; 5 mM H2O2, 10 min; n = 3
Method: (§4) Cells were plated and transfected with green fluorescence protein (GFP) siRNA (Samchully Pharm Co. Ltd., Seoul, Korea) as a control group and human CSK siRNA and human SHP-2 siRNA from Bioneer (Daejeon, Korea) using Lipofectamine RNAiMAX (Invitrogen, Carlsbad, CA, USA) according to the manufacturer’s instructions to achieve a final concentration of 300 nM.
as §3

[2] = tested on: Src (Tyr 419 phosphorylation); assay: Immunoblot of p-Src Y419; format: cell-based, human; details: CRT-MG cells; PTPi IV 0–10 µM, 30 min; 5 mM H2O2, 10 min; n = 3
Method: as §4, §3

[3] = tested on: SHP-2 (Y542 and Y580 phosphorylation); assay: Immunoblot of p-SHP-2 Y542 and Y580; format: cell-based, human; details: CRT-MG cells; PTPi IV 5 or 10 µM, 30 min; 5 mM H2O2, 10 min
Method: as §3

ERK phosphorylation = assay: Immunoblot of p-ERK; format: cell-based, human; details: CRT-MG cells; PTPi IV 5 or 10 µM, 30 min; 5 mM H2O2, 10 min
Method: as §4, §3

[4] = tested on: recombinant SHP-2 protein; assay: Bead-based flow cytometric binding assay, SHP-2; design: species or system human; details: caveolin-1 (1–50 a.a.) peptide on carboxyl beads; SHP-2 protein 1–10 µg, 1 h, RT; flow cytometry; repeated twice
Method: (§5) Human SHP-2 and CSK fusion constructs were produced by consecutively subcloning the protein coding regions of SHP-2 and CSK into the pGEX-6P-1 vector (GE healthcare, Piscataway, NJ, USA). Using these constructs, human SHP-2 and CSK were overexpressed in Escherichia coli (BL21) as soluble. Briefly, the transformed bacteria were grown in LB medium with 0.1 mg/ml ampicillin at 37°C to an A600 of 0.6, and then cultured for an additional overnight at 27°C after being induced with 0.5 mM IPTG (Duchefa Biochemie, Netherlands). The cells were harvested by centrifugation at 8000 g for 20 min, resuspended in PBS pH 7.4, and then disrupted by ultrasonication. The supernatant was purified with glutathione agarose 4B (Incospharm, Daejeon, South Korea) in PBS pH 7.4. The bound proteins were eluted with a linear gradient 10 mM glutathione in 50 mM Tris (pH 8.0). All proteins were concentrated with a Centricon apparatus (Miliipore, Darmstadt, Germany). Proteins were quantitated with the Bradford assay, then filtered and stored at −70°C until use. […]
as §2

recombinant CSK protein = assay: Bead-based flow cytometric binding assay, CSK; design: species or system human; details: caveolin-1 (1–50 a.a.) peptide on carboxyl beads; CSK protein 1–10 µg, 1 h, RT; flow cytometry; repeated twice
Method: as §5, §2

[5] = tested on: CSK binding to p-caveolin-1 peptide; assay: Flow cytometric competitive binding assay (bound CSK on p-caveolin-1 peptide conjugated beads); design: species or system human; details: 10 µg recombinant CSK with SHP-2 protein 1–100 µg; flow cytometry; repeated twice
Method: as §5
Figure 6 Small interfering RNA targeting CSK facilitates H2O2-mediated binding between caveolin-1 and SHP-2. […] Fluorescent intensities were measured by Accuri C6 flow cytometer.

With “GHL-pY-TVPIREQGN [Cav-1 pY 14, synthetic peptide phosphorylated at a Tyr residue corresponding to Tyr 14 of caveolin-1]” the SPR binding affinity (recombinant GST-CSK) was “high affinity”, the “difference in kinetic rates or RUs, rGST-SHP-2 versus rGST-CSK” value (recombinant GST-SHP-2; rGST-SHP-2 compared with rGST-CSK, immobilized on G1 chip, peptide 10 to 1,000 µg/mL) was “no significant difference in their kinetic rates or RUs” and the SPR binding affinity (recombinant GST-SHP-2; rGST-SHP-2 immobilized on G1 chip, peptide 10 to 1,000 µg/mL injected, 20 µL/min, 1×TBS, repeated twice) was “high affinity”.

With `CC(C)(c1ccc(NS(=O)(=O)C(F)(F)F)cc1)c1ccc(C(C)(C)c2ccc(NS(=O)(=O)C(F)(F)F)cc2)cc1` [PTPi IV] the FAK phosphorylation (FAK phosphorylation) was “strongly inhibited; also recorded: reduced”, the “H2O2-mediated phosphorylation of Src at Tyr 530” value [1] was “no significant change” and the “H2O2-mediated phosphorylation of Src at Tyr 419” value [2] was “dose-dependent decrease”. The “SHP-2 phosphorylation at Y542 and Y580” value [3] was “significantly reduced” and the ERK phosphorylation (ERK phosphorylation) was “strongly inhibited; also recorded: reduced”.

With “p-caveolin-1 peptide: Fifty-amino acid-long synthetic peptides of caveolin-1 (1–50 a.a.) conjugated to carboxyl beads using EDC (MSGGKYVDSEGHLYTVPIREQGNIYKPNNKAMADELSEKQVYDAHTKEID; also: phosphorylated, sites not given here; UniProt Q03135 1-50, looked up, fragment)” the “binding of SHP-2 to peptide conjugated beads” value [4] was “significantly bound” and the “binding of CSK to peptide conjugated beads” value (recombinant CSK protein) was “significantly bound”.

In the case of “SHP-2 protein: human SHP-2 overexpressed in Escherichia coli (BL21) from pGEX-6P-1, glutathione agarose purified”, the “amount of bound CSK on p-caveolin-1 peptide conjugated beads” value [5] is reported as “reduced by adding increasing concentrations of SHP-2 protein”.
